Paper PMC8645336, “Benchmarking a highly selective USP30 inhibitor for enhancement of mitophagy and pexophagy” (Life Science Alliance, 2021)

Key:
[1] = target: T1, USP15 (Homo sapiens, UniProt Q9Y4E8); experiment: biochemical; parameters: Ubiquigent DUB profiler selectivity panel, remaining enzyme activity as % of control; conditions: read-out: % of control remaining
T1 sequence (Q9Y4E8 1-981): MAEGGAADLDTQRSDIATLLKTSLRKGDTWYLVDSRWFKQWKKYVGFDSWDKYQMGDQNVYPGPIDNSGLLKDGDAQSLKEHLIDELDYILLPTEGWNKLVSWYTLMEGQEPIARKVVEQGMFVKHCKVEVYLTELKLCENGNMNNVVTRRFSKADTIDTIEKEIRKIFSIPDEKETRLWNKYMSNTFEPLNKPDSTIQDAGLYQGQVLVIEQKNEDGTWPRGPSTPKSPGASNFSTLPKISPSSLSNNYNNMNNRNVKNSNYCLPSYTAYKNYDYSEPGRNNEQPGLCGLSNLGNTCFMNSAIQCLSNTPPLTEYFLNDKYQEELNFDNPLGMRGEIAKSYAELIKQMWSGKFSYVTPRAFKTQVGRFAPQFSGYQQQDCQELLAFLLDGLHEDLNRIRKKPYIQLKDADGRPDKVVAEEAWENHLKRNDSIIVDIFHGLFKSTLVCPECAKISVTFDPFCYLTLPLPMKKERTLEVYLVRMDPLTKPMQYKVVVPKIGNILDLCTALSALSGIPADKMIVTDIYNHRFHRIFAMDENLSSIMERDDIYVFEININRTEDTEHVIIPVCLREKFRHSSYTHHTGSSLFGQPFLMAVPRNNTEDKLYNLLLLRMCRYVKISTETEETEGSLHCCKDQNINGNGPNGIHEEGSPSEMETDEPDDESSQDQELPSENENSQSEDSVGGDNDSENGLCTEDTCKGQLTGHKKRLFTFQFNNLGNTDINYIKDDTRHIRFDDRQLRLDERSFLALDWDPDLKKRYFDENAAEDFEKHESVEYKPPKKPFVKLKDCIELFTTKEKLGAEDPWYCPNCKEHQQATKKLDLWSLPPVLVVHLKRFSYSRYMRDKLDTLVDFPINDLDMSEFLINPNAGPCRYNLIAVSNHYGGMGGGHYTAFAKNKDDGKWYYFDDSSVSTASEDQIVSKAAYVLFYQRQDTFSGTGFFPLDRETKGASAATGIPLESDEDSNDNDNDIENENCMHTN
Method in brief: (§1)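 In YFP-PRKN-overexpressing hTERT-RPE1 cells, 1 h antimycin A plus oligomycin A (1 μM each) with CMPD-39, then Western blot of TOMM20 ubiquitylation. Target engagement: 2 h compound, then 10 min HA-Ub-PA at 37°C, read as USP30 shift. DUB panel (>40 enzymes) screened at 1-100 μM.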

[2] = target: T2, USP14 (+Proteasome-VS@Kd) (Homo sapiens, UniProt P54578); experiment: biochemical; parameters: Ubiquigent DUB profiler selectivity panel, remaining enzyme activity as % of control; conditions: read-out: % of control remaining
T2 construct: +Proteasome-VS@Kd
Method in brief: as §1

T2 sequence (P54578 whole entry): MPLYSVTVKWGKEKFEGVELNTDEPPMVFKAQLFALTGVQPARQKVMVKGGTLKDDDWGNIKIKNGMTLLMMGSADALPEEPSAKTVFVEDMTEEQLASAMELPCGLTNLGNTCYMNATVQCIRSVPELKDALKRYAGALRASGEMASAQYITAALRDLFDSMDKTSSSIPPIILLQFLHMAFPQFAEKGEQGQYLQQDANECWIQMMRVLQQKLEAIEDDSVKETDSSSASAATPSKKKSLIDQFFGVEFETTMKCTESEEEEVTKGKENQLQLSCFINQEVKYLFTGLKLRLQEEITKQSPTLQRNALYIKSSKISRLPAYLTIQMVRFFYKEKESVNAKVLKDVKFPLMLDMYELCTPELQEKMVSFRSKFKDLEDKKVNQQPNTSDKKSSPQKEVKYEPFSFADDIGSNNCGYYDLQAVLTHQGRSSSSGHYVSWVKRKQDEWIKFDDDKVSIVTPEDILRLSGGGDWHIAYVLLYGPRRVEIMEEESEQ

- remaining activity at 1 µM [1]: 103%
- remaining activity at 10 µM [1]: 101%
- remaining activity at 100 µM [1]: 98.1%
- remaining activity at 1 µM [2]: 107%
- remaining activity at 10 µM [2]: 100%
- remaining activity at 100 µM [2]: 96.1%
Compound: CC(C)(C)NS(=O)(=O)c1ccc(NC(=O)[C@H](Cc2ccccc2)NC(=O)c2ccc(F)cc2)cc1 [compound 39, CMPD-39]
